According to patent EP2386565A2, “Compounds and methods to inhibit or augment an inflammatory response” (Cambridge Enterprise Ltd., priority 1999, dated 2000):
Non-standard residues stand in square brackets, D forms with d. Residues, ends and D or L forms follow the SMILES beside them. No end group written: not given here. *: point of attachment. Biotin = O=C1N[C@H]2[C@H](CS[C@H]2CCCCC(=O)*)N1

How the values were obtained:
[1] = test system: HIV; format: cell-based; details: ns = not significant
[2] = test system: gp120; details: ns = not significant; >100 = ED50 not determined
Experimental: Binding assays. Cells (either Jurkat T-cells or THP-1 cells) were grown in RPMI 1640 medium supplemented with 10% fetal calf serum, 2 mM glutamine, 20 µM β-mercaptoethanol, 100 U/ml penicillin and 100 µg/ml streptomycin and maintained between 2 × 10^5 and 1 × 10^6 cells/ml. Prior to performing a binding assay, cells were spun out (100 × g; 4 minutes) and washed 3 times in ice-cold PBS. A volume of cell suspension in PBS containing 10^6 cells (for Jurkat cells) or 4 × 10^5 cells (for THP-1 cells) was pipetted into each well of a V-bottom 96-well plate (Gibco BRL) and spun out (100 x g; 4 minutes). Triplicate wells were then resuspended in 100 µl binding medium (PBS pH 7.2 containing 0.1% fatty acid-free bovine serum albumin (BSA)) containing labeled peptide in the presence or absence of various concentrations of unlabeled peptide. The plate was then incubated on ice for 90 minutes. Cells were washed 3 times with 380 µl of ice-cold PBS, spinning out the cells each time (100 × g; 4 minutes), and resuspended in 100 µl binding medium containing streptavidin-peroxidase (Amersham International) at 1:1000 dilution. Cells were incubated for a further 15 minutes on ice to allow labeling of any bound biotinylated peptide, then washed 4 times as above. Cells were then incubated with 200 µl TMB substrate (K-Blue, Bionostics) for 20 minutes at room temperature, and the reaction stopped by addition of 50 µl 2 M HCl. The plate was spun (3,000 × g; 3 minutes) and 200 µl of the colored product was transferred to an empty 96-well ELISA plate and the absorbance at 450 nm determined. For each assay, the absorbance of a blank reaction (no peptide added) was subtracted from all readings before further analysis.
Binding experiments with labeled peptide 2 were performed with 10 nM labeled peptide in each reaction.

[3] = test system: MIP1α induced THP-1 migration; experiment: THP-1 trans-well migration assay, MIP1α as chemoattractant; format: cell-based, human; details: inhibition of THP-1 migration; n.s./ns = not statistically significant
Experimental: (§1) To determine whether an agent inhibits a chemokine-induced activity, such as macrophage recruitment, varying amounts of the agent are mixed with cells in the presence of a known chemoattractant. For example, a range of known concentrations of an agent, e.g., a chemokine peptide, is incubated with a defined number (e.g., 10^4 - […]) of human THP-1 monocyte cells in individual wells of the top compartment of a trans-well plate. Chemokine (such as MCP-1, MIP1α, IL8 or SDF-1α), at a concentration known to cause significant migration of THP-1 cells in the trans-well migration assay, is placed in the lower compartment (Figure 1). Cells are then incubated at 37°C for a period sufficient to allow migration, e.g., 4 hours. After incubation, the cells are gently removed from the top of the filter with a pipette, 20 µl of 20 mM EDTA in simple PBS is added into each top well, and incubated for 20 minutes at 4°C. The filter is carefully flushed with media using a gentle flow, and removed. A standard curve consisting of a two-fold dilution series of THP-1 cells (in 29 µl) is prepared to accurately quantify the number of cells that have migrated. Migrated cells are stained with 3 µl of MTT stock dye solution which is added directly into each well (5 mg/ml in RPMI-1640 without phenol red, Sigma Chemical Co.) and incubated at 37°C for 4 hours. The media is carefully aspirated from each well, and the converted dye is solubilized by 20 µl of DMSO. Absorbance of converted dye is measured at a wavelength of 595 nm using an ELISA plate reader. The number of migrated cells in each well is then determined by interpolation of the standard curve (see also Imai et al.,J. Biol. Chem., 272, 15036 (1997)).
(§2) For this assay, THP-1 cells were maintained at a density of 4 × 10^5 cells per ml in RPMI-1640 supplemented with 10% fetal calf serum + 20 µM 2-mercaptoethanol. Chemotaxis was induced in a 96-well disposable chemotaxis chamber fitted with a 5 µM polycarbonate filter (PVP free, ChemoTX, Neuroprobe Inc., Cabin John). Twenty-nine µl of chemoattractant (recombinant human chemokine; 50 ng/ml, i.e., 5.9 nM) or control (100 ng/ml TGFβ) was added to the lower compartment of each well. The framed filter was aligned with the holes in the corner of the filter frame and placed over the wells.
(§3) Five × 10^4 THP-1 cells in 25 µl of RPMI-1640 were added to the upper compartment. Peptides were dissolved in Milli Q water and then serially diluted in culture medium. In most cases, the serially diluted peptides were added to the upper compartment of the chemotaxis chamber. The chamber was incubated at 37°C in a humidified atmosphere of 5% CO2 for 4 hours.
(§4) After incubation, the cells were gently removed from the top of the filter with a pipette, 20 µl of 20 mM EDTA in PBS was added into each top well, and the mixture was incubated for 20 minutes at 4°C. The filter was then carefully flushed with media using a gentle flow, and removed. A standard curve was prepared to accurately quantify the number of THP-1 cells that had migrated. The curve was based on a two-fold dilution series of THP-1 cells (top standard 100,000 cells in 29 µl). Cells which had migrated, and in separate wells, the cells in the standards, were stained with 3 µl of MTT stock solution which was added directly into each well (5 mg/ml in RPMI 1640 without phenol red, Sigma Chemical Co.) and incubated at 37°C for 4 hours. The media was carefully aspirated from each well, and the converted dye was solubilized by 20 µl of DMSO. Absorbance of converted dye was measured at a wavelength of 595 nm using an ELISA plate reader. The number of cells that had migrated in each well was determined by interpolation of the standard curve.
(§5) To investigate the receptor specificity of peptide 3 inhibition, the ED50 was determined for peptide 3(1-12)[MCP-1] (SEQ ID NO:1) inhibition of THP-1 migration induced by chemokines which signal through different receptors than MCP-1 receptors. […]

[4] = test system: MCP-1 induced THP-1 migration; experiment: THP-1 trans-well migration assay, MCP-1 as chemoattractant; format: cell-based, human
Experimental: as §1
Any method suitable for counting cells can be used, for example, counting with a hemocytometer, incubation of the cells with MTT (see above), or FACS analysis. A negative control assay is also performed, using TGF-β or another non-chemokine chemoattractant (e.g., IL1β or TNFα). To assess whether the agent is cytotoxic, the same concentrations of agent are incubated with THP-1 cells. Agents which 1) are not cytotoxic at levels which inhibit migration, 2) are ineffective at inhibiting the negative control-induced migration, and 3) reduce or inhibit chemokine-induced THP-1 migration, are agents which fall within the scope of the invention.
as §2, with “Twenty-nine µl of chemoattractant (recombinant human chemokine; 50 ng/ml, i.e., 5.9 nM) or control (100 ng/ml TGFβ) was added to the lower compartment of each well.” left out
as §3
as §4, with “Absorbance of converted dye was measured at a wavelength of 595 nm using an ELISA plate reader. The number of cells that had migrated in each well was determined by interpolation of the standard curve.” left out

[5] = test system: SDF-1α induced THP-1 migration; experiment: THP-1 trans-well migration assay, SDF-1α as chemoattractant; format: cell-based, human; details: inhibition of THP-1 migration; n.s./ns = not statistically significant
Experimental: as §1, §2, §3, §4, §5

[6] = Pharmacokinetics of radiolabeled D-ala peptide after IV or SQ bolus; format: in vivo, mice
Experimental: When ^3H-D-ala peptide 3(1-12)[MCP-1] (^3H-D-ala was attached to Asp) was given as an intravenous (IV) or subcutaneous (SQ) bolus to mice, peak serum concentrations were reached within 1 hour. This radiolabeled peptide was rapidly excreted (approximately 4 hours), primarily via the kidney. […] Direct comparison of ^3H-D-ala peptide 3(1-12)[MCP-1] (no DARC binding and rapidly cleared) and CRD-L-Leu4Ile11Cys13peptide 3(3-12)[MCP-1]

[7] = test system: recombinant human chemokine receptors; experiment: Binding of biotin-labeled peptide to parental and chemokine receptor expressing HOS and CHO lines (125I-streptavidin); details: labeled peptide at 10 µM
From the text: HOS parental cells and CCR1-5 and CXCR4 transformants were obtained from the AIDS Reagent Program and were maintained as described on the supplier data sheet. Selection for the chemokine receptor-expressing plasmid was maintained throughout culture. CHO parental cells and CXCR1 and CXCR2 transformants were obtained form Dr. J. Navarro (Southwestern University, TX, USA) and maintained as described by the supplier under constant selection for expression of the chemokine receptor. All cells were split at about a 1:10 dilution approximately every 4 days, releasing the cells with EDTA solution and reseeding at known density. […]
The binding of labeled peptide 2 and labeled peptide 3 to the parental HOS, parental CHO and 8 chemokine receptor expressing lines was compared. […] The amount of streptavidin molecules added was calculated in each case to be approximately 50-fold in excess over the number of chemokine receptor sites. […]
To determine whether this apparent binding of peptide 2 was cell dependent, or whether it was binding to the plastic (or the some component of the fetal calf serum used during the cell culture), the following experiment was conducted. Three plates were evaluated: One had HOS parental cells, another had CCR5 over-expressors and the third had no cells but was incubated with the FCS-containing culture medium. […]

CC[C@@H](C)[C@@H](NC(=O)[C@H](NC(=O)[C@@H](CO)NC(=O)[C@@H](CO)NC(=O)[C@@H](CCCCN)NC(=O)[C@@H](CO)NC(=O)[C@H]1CCCN1C(=O)[C@@H](CCCCN)NC(=O)[C@@H](CCC(=O)O)NC(=O)[C@@H](C)NC(=O)[C@H](NC(=O)[C@H](N)CS)C(C)C)[C@H](C)O)C(=O)N[C@H](CCCNC(=N)N)C(=O)N[C@H](CCCNC(=N)N)C(=O)N[C@H](Cc1ccc(O)cc1)C(=O)N[C@H](CO)C(=O)N[C@H](CS)C(=O)O [cvaekpsksstirrysc] (H-[dC][dV][dA][dE][dK][dP][dS][dK][dS][dS][dT][dI][dR][dR][dY][dS][dC]-OH; N-terminus and C-terminus assumed)
% virus inhibition [1]: ns
gp120 ED-50 (µM) [2]: ns
ED50 (µM) versus MIP1α [3]: ns
ED50 (µM) versus MCP-1 ([4]; inhibition of THP-1 migration, n.s./ns = not statistically significant): ns
ED50 (µM) versus SDF-1α [5]: ns

^3H-D-ala peptide 3(1-12)[MCP-1]: ^3H-D-ala was attached to Asp (EICAD(3H‑D‑Ala)PKQKWVQ; not fully specified)
time of excretion, primarily via the kidney [6]: approximately 4 hours
time to peak serum concentrations [6]: ≤ 1 h

labeled peptide: N-terminal biotin conjugate of the sequence n'-CLDPKQKWIQC-c' (Biotin-CLDPKQKWIQC; cysteine pairing not given here)
binding to parental and chemokine receptor expressing cell lines (in words) [7]: No detectable binding
ED50 for inhibition of MCP-1 induced migration ([4]; MCP-1 at 100 ng/ml in RPMI 1640 + 10% FCS, 4 hours, 5 µm filter): about 4 µM
